The values below come from patent US20040171632A1, “Combination chemotherapy” (priority 1998, published 2004).

Each structure is given as a SMILES string.

In general, melting point refers to the temperature of the solid-liquid transition.

The subject of one data set is colon 26 carcinoma cells. Put plainly: apoptosis of colon 26 carcinoma cells in culture (phalloidin-FITC, flow cytometry). Format: cell-based, mouse. Conditions: for increase of apoptosis: FIG. 1; for incidence in apoptosis: second study, FIG. 2. As to the method:
The data establish that the vehicle alone (DMSO) caused no effect on apoptosis (programmed cell death) of the colon 26 carcinoma cells. […] At the 30 nM concentration of paclitaxel, the combination caused about an 18% incidence in apoptosis.
The assay described above was repeated, and the results (see FIG. 2) confirmed that the combinations of this invention are useful to treat and control cancer. In this second study, DMSO did cause measurable cell death, somewhat similar to that observed with the 30 nM concentration of paclitaxel alone.
(In general: In flow cytometry, cells or beads pass a laser one at a time.)

Data set [1] has as its system non-small cell lung carcinoma cells (A549). Conditions: Taxol alone at 10 nM; one set of experiments.
Description: The colon 26 carcinoma cells were originally collected from a mouse that had undergone surgery to remove the infected section of the colon, and are now readily available from Southern Research Institute (Birmingham, Ala., USA). The cells were cultured to approximately 80% confluency on Day 0 of the assay. At 72 hours after the 80% confluency was established, dimethylsulfoxide (DMSO) was added to one set of cells to act as untreated controls. Paclitaxel at concentrations of 30 nM and 100 nM was added to other sets of cells. All of the cells were incubated at 38° C. for 48 hours, at which time MEK inhibitor 2-(2-chloro-4-iodophenylamino)-N-cyclopropylmethoxy-3,4-difluorobenzamide (PD184352), at a concentration of 1.0 micromolar, was added to one set of the DMSO control cells, and to the cells containing the two concentrations of paclitaxel. All cells were again incubated for an additional 48-hour period. The cells were harvested from the growth medium, and were fixed in ethanol. The cells were then treated with FITC (fluorescein isothiocyanate)-labeled phalloidin (Sigma). Binding of phalloidin-FITC to depolymerized actin thereby serves as a measure of apoptosis. Propidium iodide was also added to the treated and control cells for the purpose of staining all cells. The extent of apoptosis of tumor cells was measured by flow cytometry analysis. […]

In turn, `Cc1cc(I)ccc1Nc1ccc(Cl)cc1C(=O)NCCO` [Example 31, 5-Chloro-N-(2-hydroxyethyl)-2-(4-iodo-2-methyl-phenylamino)-benzamide] displayed a melting point of 120 to 121 °C.
As to `O=C(NOCC1CC1)c1ccc(F)c(F)c1Nc1ccc(I)cc1Cl` [PD184352, 2-(2-chloro-4-iodophenylamino)-N-cyclopropylmethoxy-3,4-difluorobenzamide], in the data set with colon 26 carcinoma cells (MEK inhibitor alone, at 30 nM as printed), the increase of apoptosis entry is reported as “about 5%”. Also, in the data set on colon 26 carcinoma cells (MEK inhibitor administered alone), the incidence in apoptosis is roughly 18%.
`Cc1cc(I)ccc1Nc1ccccc1-c1nnn[nH]1` [Example 208, (4-iodo-2-methyl-phenyl)-[2-(1H-tetrazol-5-yl)-phenyl]amine]: the melting point turned out to be 231 °C.
The compound `Cc1cc(I)ccc1Nc1cc(F)ccc1CO` [Example 49, 4-Fluoro-2-(4-iodo-2-methyl-phenylamino)-benzyl alcohol] yielded a melting point of 99 to 100.5 °C.
In the case of `CC(=O)O[C@H]1C(=O)[C@@]2(C)[C@H]([C@H](OC(=O)c3ccccc3)[C@]3(O)C[C@H](OC(=O)[C@H](O)[C@@H](NC(=O)c4ccccc4)c4ccccc4)C(C)=C1C3(C)C)[C@]1(OC(C)=O)CO[C@@H]1C[C@@H]2O` [paclitaxel], the increase of apoptosis result in the data set with colon 26 carcinoma cells (paclitaxel alone at 30 nM) was “about 9%”; with colon 26 carcinoma cells (paclitaxel alone at 100 nM) it was “about 18%”. In the data set on colon 26 carcinoma cells (paclitaxel at 100 nM alone), the incidence in apoptosis was roughly 11%. The compound further gave an incidence of apoptosis in data set [1] of 41%.
